Results as given in US7589075B2, “Use of an adenosine A3 receptor agonist for inhibition of viral replication” (Can-Fite Biopharma Ltd., priority 2001, dated 2009).

How the values were obtained:
Format in all cases: cell-based
[1] = system: HIV-1 isolate SF162 in primary human fetal microglia; experiment: p24 ELISA, HIV replication in SF162 infected microglia; conditions: Microglia/SF; for p24 pg/mL Day 5 after infection: HIV control 267.99; for p24 pg/mL Day 10 after infection: HIV control 209.18
Method: (§1) Purified primary human fetal astrocytes and microgial cells were prepared from 16 to 20 week old human fetal brain tissue by a modified procedure based on the methods of Cole and de Vellis^11, and Yong and Ante^13. Brain tissue was washed in ice-cold Hank's Balanced Salt Solution (HBSS) containing the antibiotics gentamycin and amphotericin B. Blood vessels and meninges were removed and the tissue was minced into small pieces. After mincing, the tissue was enzymatically dissociated by incubation in 0.05% trypsin and mechanically disrupted by passing several times over a 75 μm nylon mesh filter. The resulting single cell suspension was washed, pelleted and plated at a density of 2-10×10^6 cells per 162 cm^2 flask in DMEM:F12 containing 10% fetal calf serum, insulin, gentamycin, and L-glutamine. After 7-10 days of growth, microglial cells were isolated by placement on rotary shaker at 200 rpm in a 37° C. incubator overnight. The non-adherent cells were removed and allowed to attach to a new flask for 1 to 3 h. Following attachment, the cells were washed and refed with media containing 10% fetal calf serum, insulin, gentamycin, L-glutamine, and NI supplement. Astrocytes were subcultured from adherent cells in media containing 15% fetal calf serum, insulin, gentamycin, and L-glutamine and contaminating microglia were removed by repeated rotary shaking. Cultured astrocytic and microglial cells were plated at a density of 2.5×10^5 per well into 6 well plates for subsequent infection.
(§2) Brain derived primary HIV-1 isolates SF162 and JR-FL were cultured in human peripheral blood mononuclear cells (PBMC) essentially as described by Gartner and Popovic^12. PBMC were isolated from human buffy coat by fico gradient and plated at a density of 2.5×10^6 per ml in RPMI containing 10% fet calf serum and gentamycin. Cells were stimulated by the addition of 5 ug/ml phytohemagglutinin (PHA) for 48 h. After stimulation, cells were infected will either SF162 or JR-FL and cultured for 7 to 10 days until high titres of HIV-1 we detected in the supernatant by p24 ELISA assay. When viral production was optimal, the cells were pelleted, the supernatant containing HIV-1 was aliquoted and stored at −70° C. until use. P24 ELISA assay was performed on an aliquoted stock to determine the viral titre.
2.5×10^5 microglial or astrocytic cells were plated per well into 6-we plates. The next day, cells were washed and refed with fresh medium. 2×10^4 p2units of either SF 162 or JR-FL virus was added per well in a total of 1 ml of vir inoculum. In control experiments, the virus was not added. Cells were incubated with virus overnight at 37° C., washed extensively with PBS, and refed with […] fresh medium. […] 500 μl of medium were removed at the indicated times following infection and stored at −70° C. for later analysis. Each time medium was removed, a volume amount of fresh medium was added. In control experiments IB-MECA and Cl-IB-MECA were omitted.
ELISA assay to detect the HIV-1 viral core protein, p24, was performed of 50 μl of the collected supernatant utilizing the commercially available p24 ELISA Kit (NEN/Dupont) according to the manufacturer's instructions.

[2] = system: HIV-1 isolate SF162 in primary human fetal astrocytes; experiment: p24 ELISA, HIV replication in SF162 infected astroglia; conditions: Astroglia/SF-162; 0.01 (μM) every 24 hours; culture medium 5 days after infection; HIV control 313.38
Method: as §1, with “Following attachment, the cells were washed and refed with media containing 10% fetal calf serum, insulin, gentamycin, L-glutamine, and NI supplement. Astrocytes were subcultured from adherent cells in media containing 15% fetal calf serum, insulin, gentamycin, and L-glutamine and contaminating microglia were removed by repeated rotary shaking. Cultured astrocytic and microglial cells were plated at a density of 2.5×10^5 per well into 6 well plates for subsequent infection.” left out
Brain derived primary HIV-1 isolates SF162 and JR-FL were cultured in human peripheral blood mononuclear cells (PBMC) essentially as described by Gartner and Popovic^12. […] After stimulation, cells were infected will either SF162 or JR-FL and cultured for 7 to 10 days until high titres of HIV-1 we detected in the supernatant by p24 ELISA assay. […]

[3] = system: HIV-1 isolate JR-FL in primary human fetal astrocytes; experiment: p24 ELISA, HIV replication in JR-FL infected astroglial cells; conditions: for p24 pg/mL Day 5: Astroglia/JR-FL, 0.01 (μM) every 24 hours, culture medium 5 days after HIV infection, HIV control 22.83; for amount of p24 protein in culture medium from HIV infected cells in comparison to untreated HIV controls: summary statement for Tables 1 to 3 (astroglia and microglia, JR-FL and SF162)
Method: as §1, §2
2.5×10^5 microglial or astrocytic cells were plated per well into 6-we plates. The next day, cells were washed and refed with fresh medium. 2×10^4 p2units of either SF 162 or JR-FL virus was added per well in a total of 1 ml of vir inoculum. In control experiments, the virus was not added. Cells were incubated with virus overnight at 37° C., washed extensively with PBS, and refed with […] fresh medium. Cultures were treated with IB-MECA or CI-IB-MECA at concentration of 0.01 μM every 24 hours. […]

| Structure (SMILES) | p24 pg/mL Day 5 after infection ([1]; 0.01 (μM)) [pg/mL] | p24 pg/mL Day 10 after infection ([1]; 0.01 (μM)) [pg/mL] | p24 pg/mL Day 5 after infection ([1]; 0.1) [pg/mL] | p24 pg/mL Day 10 after infection ([1]; 0.1) [pg/mL] | p24 pg/mL Day 5 [2] [pg/mL] | p24 pg/mL Day 5 [3] [pg/mL] | amount of p24 protein in culture medium from HIV infected cells in comparison to untreated HIV controls [3] |
| --- | --- | --- | --- | --- | --- | --- | --- |
| CNC(=O)[C@H]1O[C@@H](n2cnc3c(NCc4cccc(I)c4)nc(Cl)nc32)[C@H](O)[C@@H]1O [Cl-IB-MECA] | 127.03 | 111.05 | 10.81 | 80.37 | 288.77 | 8.45 | significantly reduced |
| CNC(=O)[C@H]1O[C@@H](n2cnc3c(NCc4cccc(I)c4)ncnc32)[C@H](O)[C@@H]1O [IB-MECA, 1-deoxy-1-{6-[({3-iodophenyl}methyl)amino]-9H-purine-9-yl}-N-methyl-β-D-ribofuranuron-amide] | 81.33 | 62.79 | 82.29 | 54.80 | 137.58 | 3.02 | significantly reduced |
